Columns and labels:
[1] = test system: Plasmodium berghei ANKA (PbA); assay: Early treatment of experimental cerebral malaria (ECM), ICR mice infected with PbA; settings: 10 mg/kg/d on days 3, 5, 7, 9 p.i.
Protocol: (§1) Plasmodium berghei ANKA (PbA; PbA MRA-311, CDC, Atlanta, GA, USA) was maintained in vivo by serial transfer of parasitized erythrocytes (PE) from infected to naïve mice. Experiments were also performed using a second strain of PbA, similarly maintained, and designated PbAus in the text (courtesy of Prof. G. Grau, University of Sydney, Australia).
(§2) Parasitemia was monitored by thin blood smears prepared from tail blood. These were stained with a 25% Giemsa solution, examined under a light microscope, and parasitemia determined as the percent of infected red blood cells per 10,000 erythrocytes. Disease severity was determined according to scoring of neurological symptoms and changes in weight and temperature, as previously described […] Parasitemias above 20% and the absence of neurological symptoms indicated severe anemic malaria.
For early ECM treatment, injections were given on days 3, 5, 7, and 9 p.i; for late treatment, treatment was given every other day, starting on day 5 p.i. for a total of at least two injections. Infected, non-treated control mice were injected with 5% dextrose or empty nSSL. Clinical signs and parasitemias were monitored and disease severity scored as described […] Surviving mice were treated with 2×10 mg/kg/d artemisone by intraperitoneal injection in order to achieve cure; mice were monitored for four weeks post-artemisone treatment in order to allow detection of possible late recrudescence. […] At each time-point, at least 3 mice from each group were chosen at random, deeply anesthetized, and brains were removed following intracardial perfusion (using saline, if organs were destined for real-time (rt)PCR analysis, or saline/formalin, if organs were destined for histopathological analysis). Organs destined for rtPCR analysis were snap-frozen in liquid nitrogen and stored at −80°C until use. Organs destined for immunohistology were immediately immersed in cryoprotectant solution (see below).

[2] = test system: Plasmodium berghei ANKA (PbAus); assay: Early treatment of ECM, PbAus-inoculated C57Bl/6 mice (with sequential artemisone); settings: for Death: ECM (number of mice) / Death: Severe anemic malaria (number of mice) / Death: Toxicity (number of mice) / Death: ECM (%) / Death: Severe anemic malaria (%) / Average clinical score (±SEM): days 3, 5, 7, 9 p.i.; for Death: ECM (%) / Death: Severe anemic malaria (%): excludes acute toxicity deaths; for Average clinical score (±SEM): 11 days post-inoculation; for % survival / Group score: 20 mg/kg (Fig 6 legend)
Protocol: as §1, §2
For early ECM treatment, injections were given on days 3, 5, 7, and 9 p.i; for late treatment, treatment was given every other day, starting on day 5 p.i. for a total of at least two injections. Infected, non-treated control mice were injected with 5% dextrose or empty nSSL. Clinical signs and parasitemias were monitored and disease severity scored as described […] At each time-point, at least 3 mice from each group were chosen at random, deeply anesthetized, and brains were removed following intracardial perfusion (using saline, if organs were destined for real-time (rt)PCR analysis, or saline/formalin, if organs were destined for histopathological analysis). Organs destined for rtPCR analysis were snap-frozen in liquid nitrogen and stored at −80°C until use. Organs destined for immunohistology were immediately immersed in cryoprotectant solution (see below).

[3] = test system: PbAus-infected C57Bl/6 mice; assay: Brain hemorrhages, H&E staining; format: in vivo; settings: treatment days 3, 5, 7, 9 p.i.
Protocol: H&E staining was performed by incubation of slides in Sigma's Accustain hematoxylin solution followed by staining in eosin solution (2% eosin, 1% phloxine and 0.5% acetic acid in 95% ethanol), and mounting in Hydromount (National Diagnostics, Cherry Hill, NJ, USA).

[4] = test system: inflammation-related genes (CCL5, CXCL9, CXCL10, ICAM-1, IFNγ, IL-4); assay: Brain expression of inflammation-related genes by qPCR; format: in vivo, C57Bl/6 mice; settings: day 9 p.i., treatment days 3, 5, 7, 9 p.i., relative to non-infected mice, normalized to HPRT
Protocol: For total RNA extraction, samples were homogenized in Tri-reagent (Sigma) and the homogenate separated into aqueous and organic phases by chloroform addition and centrifugation. RNA was precipitated from the aqueous phase by addition of isopropanol, washed with ethanol, and solubilized in UPW.
cDNA synthesis was performed using a High Capacity cDNA Reverse Transcription kit (Applied Biosystems, Warrington, UK). cDNA was amplified from 1 µg RNA from each sample with the addition of 2 µl Multiscribe™ reverse transcriptase (RT), 2 µl RNAse inhibitor, 4 µl random primers, 4 µl RT buffer, and 1.6 µl dNTP's according to the manufacturer's instructions for first-strand cDNA synthesis. UPW was added for a final sample volume of 20 µl. cDNA samples were stored at −20°C.
Real-time transcription-polymerase chain reaction (rtPCR) was carried out using Applied Biosystems' 9800 Fast Thermal Cycler. The reaction mix for rtPCR analysis consisted of 1 µl cDNA, 300 nM forward (f) and reverse (r) primers (Syntezza, Jerusalem, Israel), and 7.5 µl manufactured master mix buffer containing nucleotides, Taq polymerase, and SYBR Green (Applied Biosystems) in a total volume of 15 µl. Gene amplification included one stage of 10 min at 95°C followed by 40 cycles of a two-step loop: 20 s at 95°C, and 1 min at 60°C. The fold-change in gene expression was normalized to the endogenous gene hypoxanthine phosphoribosyltransferase (HPRT). […] Results were considered significant if the observed fold-change was at least ×2 relative to non-infected mice. Primer sequences (5′-3′) were as follows: CCL5: […] (f), […] (r); ICAM-1: […] (f); […] (r); IFN-γ: […] (f), […] (r); IL-4: […] (f), […] (r); CXCL9: […] (f), […] (r); CXCL10: […] (f), […] (f), […] (r).

[5] = day 5 p.i., treatment days 3, 5, 7, 9 p.i.
[6] = day 9 p.i., treatment days 3, 5, 7, 9 p.i.

Question: What does the source list for `C[C@H]1C[C@H]2[C@@H]3CCC4=CC(=O)C=C[C@]4(C)[C@@]3(F)[C@@H](O)C[C@]2(C)[C@@]1(O)C(=O)COC(=O)CCC(=O)O` [BMS, β-methasone hemisuccinate]?
Answer: ECM rate (incidence of CM) [1]: 67%; Death: ECM (number of mice) ([2]; 5 mg/kg i.v.): 5; Death: Severe anemic malaria (number of mice) ([2]; 5 mg/kg i.v.): 1; Death: Toxicity (number of mice) ([2]; 5 mg/kg i.v.): 3; Death: ECM (%) ([2]; 5 mg/kg i.v.): (83%); Death: Severe anemic malaria (%) ([2]; 5 mg/kg i.v.): (16%); Death: ECM (number of mice) ([2]; 10 mg/kg i.v.): 9; Death: Severe anemic malaria (number of mice) ([2]; 10 mg/kg i.v.): 1; Death: Toxicity (number of mice) ([2]; 10 mg/kg i.v.): 3; Death: ECM (%) ([2]; 10 mg/kg i.v.): (90%); Death: Severe anemic malaria (%) ([2]; 10 mg/kg i.v.): (10%); Average clinical score (±SEM) ([2]; 10 mg/kg): 7.5±1.6; Death: ECM (number of mice) ([2]; 20 mg/kg i.v.): 9; Death: Severe anemic malaria (number of mice) ([2]; 20 mg/kg i.v.): 3; Death: Toxicity (number of mice) ([2]; 20 mg/kg i.v.): 5; Death: ECM (%) ([2]; 20 mg/kg i.v.): (75%); Death: Severe anemic malaria (%) ([2]; 20 mg/kg i.v.): (25%); Survival rate on day 13 p.i., at the end of the cerebral phase ([2]; 20 mg/kg on days 3, 5, 7, 9 p.i., listed as free BMS): 12%; Average clinical score (±SEM) ([2]; 20 mg/kg): 12.3±2.4; % survival [2, 5]: 100%; Group score [2, 5]: 1.3±1.1; % survival [2, 6]: 47%; Group score [2, 6]: 8.4 ±1.7; Incidence of ECM ([2]; treatment days 3, 5, 7, 9 p.i., as quoted with the gene expression study): 75%; Number of hemorrhages ([3]; day 5 p.i.): 9±1; Number of hemorrhages ([3]; day 9 p.i.): 9±2; CCL5 relative expression ± SEM [4]: 45.7±7.6; CXCL9 relative expression ± SEM [4]: 39.3±11.1; CXCL10 relative expression ± SEM [4]: 18.2±2.4; ICAM-1 relative expression ± SEM [4]: 3.3±0.7; IFNγ relative expression ± SEM [4]: 105.1±37.7; IL-4 relative expression ± SEM [4]: 1.5±0.3

Source: PMC3753236, “Glucocorticosteroids in Nano-Sterically Stabilized Liposomes Are Efficacious for Elimination of the Acute Symptoms of Experimental Cerebral Malaria” (PLoS ONE, 2013)
